Reference: patent US7405236B2, “Indole derivatives comprising an acetylene group” (Hoffman-La Roche Inc., priority 2004, dated 2008)

Legend:
Conditions in all cases: receptor binding, SPA
PPARα = biological target: T1, PPARα (Homo sapiens, UniProt Q07869); test: PPARα radioligand binding assay (scintillation proximity, GST-PPARα-LBD)
T1 construct: PPARα (aa 167 to 469); made in house; host or cells: E. coli BL21(pLysS)
T1 sequence (Q07869 167-468 limits assumed): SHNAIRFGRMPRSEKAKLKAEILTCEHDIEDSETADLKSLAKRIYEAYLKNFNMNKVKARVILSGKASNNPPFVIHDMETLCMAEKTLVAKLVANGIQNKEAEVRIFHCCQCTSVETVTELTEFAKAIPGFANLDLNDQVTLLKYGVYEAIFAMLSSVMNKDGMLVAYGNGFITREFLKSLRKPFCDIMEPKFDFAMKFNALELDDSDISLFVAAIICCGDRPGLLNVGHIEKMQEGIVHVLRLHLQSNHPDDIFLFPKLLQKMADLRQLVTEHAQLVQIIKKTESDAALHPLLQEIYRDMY
Text: (§1) Background information on the performed assays can be found in: Nichols J S et al. “Development of a scintillation proximity assay for peroxisome proliferator-activated receptor gamma ligand binding domain”, (1998) Anal. Biochem. 257: 112-119.
(§2) Full-length cDNA clones for humans PPARδ and PPARα and mouse PPARγ were obtained by RT-PCR from human adipose and mouse liver cRNA, respectively, cloned into plasmid vectors and verified by DNA sequencing. Bacterial and mammalian expression vectors were constructed to produce glutathione-s-transferase (GST) and Gal4 DNA binding domain proteins fused to the ligand binding domains (LBD) of PPARδ (aa 139 to 442), PPARγ (aa 174 to 476) and PPARα (aa 167 to 469). To accomplish this, the portions of the cloned sequences encoding the LBDs were amplified from the full-length clones by PCR and then subcloned into the plasmid vectors. Final clones were verified by DNA sequence analysis. […]
(§3) PPARα receptor binding was assayed in TKE50 (50 mM Tris-HCl, pH 8, 50 mM KCl, 2 mM EDTA, 0.1 mg/ml fatty acid-free BSA and 10 mM DTT). […] All binding assays were performed in 96 well plates and the amount of bound ligand measured on a Packard TopCount using OptiPlates (Packard). Nonspecific binding was determined in the presence of 10^−4 M unlabelled compound. […]

PPARγ = biological target: T2, PPARγ (Mus musculus, UniProt P37238); test: PPARγ radioligand binding assay (scintillation proximity, GST-PPARγ-LBD)
T2 construct: PPARγ (aa 174 to 476); made in house; host or cells: E. coli BL21(pLysS)
T2 sequence (P37238 204-505): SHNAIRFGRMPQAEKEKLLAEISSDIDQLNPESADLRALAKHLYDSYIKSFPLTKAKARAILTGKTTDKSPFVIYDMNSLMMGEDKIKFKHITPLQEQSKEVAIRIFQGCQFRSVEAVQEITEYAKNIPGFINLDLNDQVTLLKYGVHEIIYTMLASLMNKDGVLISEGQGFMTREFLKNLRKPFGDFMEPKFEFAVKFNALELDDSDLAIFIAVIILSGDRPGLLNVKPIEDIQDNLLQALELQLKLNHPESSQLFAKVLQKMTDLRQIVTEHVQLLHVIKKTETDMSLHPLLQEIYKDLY
Text: as §1, §2
as §3, with “PPARγ” for “PPARα”

PPARδ = biological target: T3, PPARδ (Homo sapiens, UniProt Q03181); test: PPARδ radioligand binding assay (scintillation proximity, GST-PPARδ-LBD)
T3 construct: PPARδ (aa 139 to 442); made in house; host or cells: E. coli BL21(pLysS)
T3 sequence (Q03181 139-441 limits assumed): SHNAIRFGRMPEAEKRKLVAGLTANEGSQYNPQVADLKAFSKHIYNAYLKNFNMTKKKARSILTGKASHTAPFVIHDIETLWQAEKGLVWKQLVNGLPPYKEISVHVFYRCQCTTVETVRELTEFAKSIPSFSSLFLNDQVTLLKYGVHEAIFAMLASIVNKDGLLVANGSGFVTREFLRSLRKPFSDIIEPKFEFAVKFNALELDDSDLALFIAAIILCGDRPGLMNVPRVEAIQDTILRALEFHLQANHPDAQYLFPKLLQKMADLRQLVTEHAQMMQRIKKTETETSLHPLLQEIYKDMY
Text: as §1, §2
PPARδ receptor binding was assayed in HNM10 (50 mM Hepes, pH 7.4, 10 mM NaCl, 5 mM MgCl2, 0.15 mg/ml fatty acid-free BSA and 15 mM DTT). […] Radioligand was added and the reaction incubated at RT for 1 h and scintillation proximity counting performed in the presence of test compounds was determined. All binding assays were performed in 96 well plates and the amount of bound ligand was measured on a Packard TopCount using OptiPlates (Packard). […]

| IC50 (PPARα) [nM] | IC50 (PPARγ) [µM] | IC50 (PPARδ) [nM] | SMILES |
| --- | --- | --- | --- |
| 74 | > 10 | 301 | O=C(O)Cn1ccc2cc(OCCCC#Cc3ccc(OC(F)(F)F)cc3)ccc21 [Example 6, {5-[5-(4-Trifluoromethoxy-phenyl)-pent-4-ynyloxy]-indol-1-yl}-acetic acid] |
| 317 | > 10 | 149 | O=C(O)Cn1ccc2ccc(OCCCC#Cc3cccc(OC(F)(F)F)c3)cc21 [Example 2, {6-[5-(3-Trifluoromethoxy-phenyl)-pent-4-ynyloxy]-indol-1-yl}-acetic acid] |
